Reference: patent publication US20230278972A1, “SUBSTITUTED HALOALKYL SULFONANILIDE HERBICIDES” (FMC Corporation, priority 2020, published 2023)

Assays:
Type in all cases: in vivo
[1] = tested on: Pigweed, Palmer (palmer amaranth, palmer pigweed, Amaranthus palmeri); assay: Test A1 preemergence, Pigweed, Palmer
Summary of the method: (§1)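 Plants grown in pots of loam/sand mix; preemergence = soil-directed spray on seeded pots, postemergence = spray at 1–2 leaves, height 2–10 cm; test chemicals formulated in non-phytotoxic solvent with surfactant.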

[2] = tested on: rice (Oryza sativa); assay: Test B1 flooded paddy test, rice; details: 250 g ai/ha, Flood, applied to paddy water, 2-leaf stage, visually evaluated after 10 to 14 days
Description: A dash (-) response means no test result.

[3] = tested on: soybean (Glycine max); assay: Test A1 preemergence, soybean
Summary of the method: as §1

[4] = tested on: Ryegrass, Italian (Italian ryegrass, Lolium multiflorum); assay: Test A1 preemergence, Ryegrass, Italian
Summary of the method: as §1

[5] = tested on: soybean (Glycine max); assay: Test A1 postemergence, soybean; details: for Soybean plant response rating: 31 g ai/ha, postemergence; for Plant response rating, Soybean: Postemergence, 125 g ai/ha
Summary of the method: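 Plants were grown in a loam soil/sand blend, with test chemicals formulated in a non-phytotoxic solvent mixture containing surfactant. Preemergence treatment (corn) was a directed soil spray at planting. Postemergence treatment was applied to plants 2 to 10 cm tall at the one- to two-leaf stage.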

[6] = tested on: wheat (Triticum aestivum); assay: Test A1 preemergence, wheat
Summary of the method: as §1

[7] = 31 g ai/ha, 0 to 100 scale (0 no effect, 100 complete control)
[8] = 125 g ai/ha, 0 to 100 scale, 0 no effect, 100 complete control
[9] = 0 to 100 scale (0 no effect, 100 complete control)
[10] = 0 to 100 scale (0 no effect, 100 complete control), 10 days
[11] = 125 g ai/ha, 0 to 100 scale (0 no effect, 100 complete control)

| SMILES | Plant response rating, Pigweed, Palmer [1, 7] | Plant response rating, Pigweed, Palmer [1, 8] | Plant response rating, Rice (0 to 100 scale, 0 is no effect, 100 is complete control) [2] | Plant response rating, Soybean [3, 7] | Plant response rating, Soybean [3, 8] | Plant response rating, Ryegrass, Italian [4, 7] | Plant response rating, Ryegrass, Italian [4, 8] | Soybean plant response rating [5, 9] | Plant response rating, Soybean [5, 10] | Plant response rating, Wheat [6, 7] | Plant response rating, Wheat [6, 8] | Plant response rating, Soybean ([5]; 0 to 100 scale) | Plant response rating, Pigweed, Palmer [1, 11] | Plant response rating, Soybean [3, 11] | Plant response rating, Ryegrass, Italian [4, 11] | Plant response rating, Wheat [6, 11] |
| --- | --- | --- | --- | --- | --- | --- | --- | --- | --- | --- | --- | --- | --- | --- | --- | --- |
| Cc1cc(C)c(N2CCC3(CCC(C)CC3)C2=O)cc1NS(=O)(=O)C(F)(F)F (stereo not drawn) [Compound 402] | 60 | 80 | 0 | 10 | 80 | 90 | 100 | 60 | 80 | 30 | 50 |  |  |  |  |  |
| CCOC(=O)N(c1cc(C(=O)N2C[C@@H](C)O[C@H](C)C2)c(C)c(C)c1C)S(=O)(=O)C(F)(F)F (relative stereo) [Compound 374] | 60 | 80 | 0 | 0 | 70 | 0 | 90 | 50 |  | 0 | 30 | 90 |  |  |  |  |
| Cc1cc(C)c(N2CC3(CCCCC3)CC2=O)cc1NS(=O)(=O)C(F)(F)F [Compound 392] | 0 | 20 | 0 | 0 | 0 | 0 | 60 | 50 | 60 | 0 | 50 |  |  |  |  |  |
| CCc1cc(C)c(N(COC(=O)C(C)(C)C)S(=O)(=O)C(F)(F)F)cc1C1=NOC2CCCC12 (stereo not drawn) [Compound 378] | 0 | 20 | 10 | 0 | 0 | 0 | 40 | 0 |  | 10 | 20 | 20 |  |  |  |  |
| Cc1cc(Cl)c(NS(=O)(=O)C(F)(F)F)cc1N1CC2(CCCCC2)OC1=O [Compound 394] | 20 | 90 | 0 | 50 | 60 | 40 | 100 | 10 | 60 | 30 | 70 |  |  |  |  |  |
| Cc1cc(C)c(C2=NOC(C(C)C)C2)cc1NS(=O)(=O)C(F)(F)F (stereo not drawn) [Compound 381] | 30 | 90 | 0 | 0 | 50 | 50 | 90 | 50 | 60 | 40 | 90 |  |  |  |  |  |
| Cc1cc(C)c(N2Cc3cccc(C)c3C2=O)cc1NS(=O)(=O)Cl [Compound 408] |  |  | 65 |  |  |  |  | 40 | 50 |  |  |  | 60 | 50 | 100 | 100 |
| Cc1cc(C)c(C2=NOC3OCCCC23)cc1NS(=O)(=O)C(F)(F)F (stereo not drawn) [Compound 372] | 40 | 90 | 10 | 0 | 50 | 40 | 90 | 30 |  | 10 | 30 | 60 |  |  |  |  |
| CCOc1cccc2c1C(=O)N(c1cc(N(COC(=O)C(C)(C)C)S(=O)(=O)Cl)c(C)cc1C)C2 [Compound 414] |  |  | 0 |  |  |  |  | 20 | 30 |  |  |  | 40 | 0 | 30 | 0 |
| Cc1cc(C)c(N(COC(=O)C(C)(C)C)S(=O)(=O)C(F)(F)F)cc1N1CCC2(CCC(C(F)(F)F)CC2)C1=O (stereo not drawn) [Compound 403] | 0 | 0 | 0 | 0 | 0 | 30 | 30 | 50 | 60 | 0 | 0 |  |  |  |  |  |
